Experimental data published in PubChem BioAssay (NCI).
Values joined by “and” are separate entries in the source; they are usually repeats but may differ in a detail not shown here. Equal entries are not always repeated.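 Values below derive from 48-hour exposures of cells grown in 96-well plates, with endpoints linearly interpolated between the two concentrations bracketing the appropriate inhibition level. Abbreviation: GI50, concentration required for 50% inhibition of growth. TGI: concentration producing complete growth inhibition.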

Tests used:
Assay in all cases: growth of human tumour cells (NCI), 48 h
CCRF-CEM leukemia = tested on: CCRF-CEM leukemia
SNB-75 CNS = tested on: SNB-75 CNS
MDA-MB-231 breast = tested on: MDA-MB-231 breast
SF-268 CNS = tested on: SF-268 CNS
SF-295 CNS = tested on: SF-295 CNS
NCI-H23 lung = tested on: NCI-H23 lung
HCT-116 colon = tested on: HCT-116 colon
SR leukemia = tested on: SR leukemia
NCI-H460 lung = tested on: NCI-H460 lung
RXF 393 renal = tested on: RXF 393 renal

SMILES | GI50 (CCRF-CEM leukemia) | TGI (CCRF-CEM leukemia) | GI50 (SNB-75 CNS) | TGI (SNB-75 CNS) | GI50 (MDA-MB-231 breast) | TGI (MDA-MB-231 breast) [µM] | GI50 (SF-268 CNS) | TGI (SF-268 CNS) | GI50 (SF-295 CNS) | TGI (SF-295 CNS) | GI50 (NCI-H23 lung) | TGI (NCI-H23 lung) | GI50 (HCT-116 colon) [µM] | TGI (HCT-116 colon) | GI50 (SR leukemia) | TGI (SR leukemia) | GI50 (NCI-H460 lung) | TGI (NCI-H460 lung) | GI50 (RXF 393 renal) | TGI (RXF 393 renal)
O=C(CN1CCN(CCCOc2c(-c3ccccc3)oc3ccccc3c2=O)CC1)Nc1ccc(Cl)cc1C(=O)c1ccccc1Cl | 0.635 µM | 12 µM | 4.39 µM | 47.1 µM | 4.26 µM | 19.3 | 23.2 µM | > 100 µM | 4.79 µM | 18.2 µM | 12.4 µM | 41.9 µM | 4.44 | 16.6 µM | 3.14 µM | 8.17 µM | 3.64 µM | > 100 µM | 2.57 µM | 8.79 µM
N#CC(C(=O)CCC(=O)C(C#N)c1ccccc1)c1ccccc1 (centres undefined) | – | > 100 µM | – | > 100 µM | – | – | – | > 100 µM | – | > 100 µM | – | > 100 µM | – | > 100 µM | – | > 100 µM | – | > 100 µM | – | > 100 µM
CCOC(=O)c1[nH]c(Br)c(-c2ccc(Br)cc2)c1Br | 0.278 µM | 1.11 µM | 0.461 µM | 2.68 µM and 4.41 µM | 0.782 µM | 7.07 | 0.836 µM | 34.8 µM | 0.145 µM | 0.763 µM and 0.815 µM | 2.48 µM | 6.94 µM and 14.3 µM | 0.445 | 1.92 µM and 10.6 µM | 0.199 µM | 11.1 µM | – | > 100 µM | – | 8.14 µM
COc1ncc(-c2ccc3nccc(-c4ccnnc4)c3c2)cc1NS(=O)(=O)c1ccc(F)cc1F | 0.0333 µM and 0.0262 µM | 0.706 µM and 4.04 µM | 0.00133 µM and < 0.01 µM | 0.0135 µM and < 0.0156 µM | 0.0392 µM and 0.0439 µM | 1.83 | 0.0127 µM and 0.0148 µM | > 10 µM and 9.23 µM | 0.00537 µM and < 0.01 µM | 0.0595 µM and 0.0299 µM | 0.029 µM and 0.0174 µM | > 8.67 µM and 6.46 µM | 0.0155 | 2.31 µM and 1.55 µM | 0.0169 µM and 0.0203 µM | 0.499 µM and 0.345 µM | 0.00406 µM and < 0.01 µM | > 10 µM and 15.3 µM | 0.0048 µM and < 0.01 µM | 0.0436 µM and 0.0351 µM
O=C(CC1(O)C(=O)Nc2c(Cl)ccc(Cl)c21)c1ccc2ccccc2c1 (centres undefined) | – | > 100 µM | – | 54 µM | – | – | – | 36.2 µM | – | 27.7 µM | – | 27 µM | – | 28.3 µM | – | 7.62 µM | – | 25.5 µM | – | 27 µM
Clc1cc(Cc2cc(Cl)c(Cl)c3c2OCOC3)c2c(c1Cl)COCO2 | – | > 100 µM | – | 52.3 µM | – | – | – | > 100 µM | – | 78.8 µM | – | > 100 µM | – | > 100 µM | – | > 100 µM | – | > 100 µM | – | 70.3 µM
O=C(/C=C/c1cccnc1)NCCCCC1CCCN(C(=O)c2ccccc2)C1 (centres undefined) | < 0.01 µM | > 100 µM | – | > 100 µM | > 100 µM | > 100 | > 28.4 µM | > 100 µM | < 0.0474 µM | > 87.1 µM | 30.3 µM | > 100 µM | < 0.01 | > 100 µM | 0.0617 µM | > 100 µM | 0.0227 µM | > 100 µM | > 100 µM | > 100 µM
COc1ccccc1CCN=C1NC(=O)/C(=C/c2ccc3ncccc3c2)S1 | 5.45 µM | 23 µM | 3.71 µM | > 19.2 µM | 9.39 µM | > 25 | 7.54 µM | > 25 µM | 5.86 µM | > 21.8 µM | 8.56 µM | > 25 µM | 1.63 | > 12.4 µM | 0.743 µM | 3.02 µM | 6.05 µM | > 25 µM | 5.5 µM | 16.9 µM
CCOC(=O)N1CCc2cc(OC)c(OC)c3c2c1cc1cc(OC)c(OC)cc13 | – | > 58.3 µM | – | 8.4 µM | – | > 100 | – | > 100 µM | – | 35.2 µM | – | 55.6 µM | – | 30.7 µM | – | > 38.6 µM | – | 28.5 µM | – | 12.1 µM
O=C(CO)CC(=O)C(=O)Nc1ccccc1 | – | > 100 µM | – | – | – | – | – | > 100 µM | – | > 100 µM | – | > 100 µM | – | > 100 µM | – | > 100 µM | – | > 100 µM | – | > 100 µM
COc1cc(C)c(Cl)cc1C1=NN(c2ccc(S(N)(=O)=O)cc2)C(/C=C/c2ccccc2)C1 (centres undefined) | 4.34 µM | > 100 µM | 3 µM | 30.1 µM | 3.3 µM | 10.8 | 4.4 µM | > 100 µM | 3.17 µM | 13.6 µM | 2.02 µM | 7.73 µM | 1.9 | 4.72 µM | 3.06 µM | 8.91 µM | 2.43 µM | 6.3 µM | 1.71 µM | 3.5 µM
O=C(c1ccco1)c1nc2cc(Cl)ccc2[n+]([O-])c1C(F)(F)F | 0.0182 µM | 0.443 µM | 46 µM | > 100 µM | 34.2 µM | > 100 | 71.1 µM | > 100 µM | 94 µM | > 100 µM | 42 µM | > 100 µM | 40.6 | > 100 µM | 17.1 µM | 44.3 µM | 57 µM | > 100 µM | 19.5 µM | 59.2 µM
COc1cc2c3c(n(CCCN)c(=O)c2cc1OC)-c1cc2c(cc1/C3=C\CCN)OCO2 | 0.196 µM | 36.5 µM | 1.85 µM | 8.02 µM | 2.5 µM | 11.2 | 0.993 µM | 6.89 µM | 3.33 µM | – | 5.35 µM | 24.1 µM | 0.989 | – | 0.166 µM | > 100 µM | 1.06 µM | 7.53 µM | 4.41 µM | 14.8 µM
CC(=O)OC[C@]1(O)CC[C@@]23CC1C[C@@H]2CCC1C(C)(C)CCC[C@@]13C (some centres undefined) | – | 25.7 µM | – | 30 µM | – | – | – | 30.4 µM | – | 32 µM | – | 26.4 µM | – | 24.2 µM | – | 23.6 µM | – | 30.2 µM | – | 22.9 µM
Cn1c(/C=C(\C#N)c2ccccc2)nc2c(N3CCOCC3)nc(Cl)nc21 | 0.295 µM | 0.971 µM | 0.276 µM | 1.59 µM | 1.31 µM | 2.92 | 1.55 µM | 3.15 µM | 1.98 µM | 4.32 µM | 1.63 µM | 3.2 µM | 0.178 | 0.432 µM | 0.393 µM | 2.1 µM | 1.77 µM | 3.72 µM | 0.89 µM | 2.14 µM
